Measured values: patent publication US12599548B2, “Method of treating oxidative stress in skin and compositions therefor” (The Procter & Gamble Company, priority 2020, dated 2026)

Tested on: Keratinocytes (H-tert-keratinocytes) subjected to oxidative stress
Test: Oxidative Stress Test (cellular ATP level, ATP Glo luminescence)
Assay type: cell-based, human
Settings: 90 minutes
Description: This test method provides a suitable way to determine the ability of a test agent to improve cellular ATP production in cells subjected to oxidative stress.
Keratinocytes (e.g., H-tert-keratinocytes from University of Texas Southwestern) are cultured in T150 flasks in EpiLife Medium (e.g., catalogue #MEPICFPRF500 from Thermo Fisher Scientific) supplemented with human keratinocyte growth supplement (e.g., catalogue #S-001-5 from Thermo Fisher Scientific) and 1% penicillin/streptomycin (e.g., catalogue #15140-122 from Thermo Fisher Scientific). When the keratinocytes reach ˜70% confluency, they are plated out into 96 well plates (white, clear bottom with 20,000 cells/well). Incubate the plates for 24 hours before the experimental stress and treatment are applied.
The 96 well plate is divided into three groups of samples (wells) as follows: (i) no stress and no treatment is applied, (ii) stress is applied but no treatment and (iii) stress and treatment are both applied. In combination experiments, stress plus 2 treatments may be applied. For the no stress/no treatment samples (i.e., group (i) above), the culture medium is simply refreshed. For the stressed samples (i.e., group (ii) and (iii) above), culture medium containing 400 μM hydrogen peroxide (HOOH) is used to replace the medium. For the treatment samples (i.e., group (iii) above), immediately after adding the HOOH, pipette the treatment(s) into the wells from a 100× master stock. Return the plates to the CO2 incubator for 90 minutes before measuring ATP.
ATP is measured by removing the media from the samples and replacing it with ATP Glo® reagent (available from Promega, Madison, WI), or equivalent, per manufacturer's instructions. After 10 minutes of exposure at room temperature, the luminescence of each sample can be measured using a Perkin Elmer ENVISION brand plate reader or equivalent. Luminescent counts are directly proportional to ATP level in the cells. Record the luminescent counts for each sample.
Replicates of each treatment group are averaged together, and standard p-value calculations are used (2-sided, equal variance) to calculate significance. In cases where 2 treatments appear to synergistically enhance ATP levels, the results of the combined treatments can be compared to the sum of the individual treatments to determine a synergy factor. The synergy factor is calculated as the ratio of the observed effect from the combined treatments divided by the sum of the results from each individual treatment.
The test agents used in the Oxidative Stress Test are limited to relatively low concentrations due to cell toxicity. That is, applying high concentrations of the test agent directly to “unprotected” keratinocytes may kill some of all of the cells, which would obviously skew the test results. […]

Compound: CCCCCCCCC(CO)CCCCCC (stereo not shown) [Fatty Alcohol, hexyldecanol]
- Measured ATP level (Fatty Alcohol 0.2 ppm, 400 μM hydrogen peroxide): 368.3
- Measured ATP level (Fatty Alcohol 1 ppm, keratinocytes stressed with 400 μM hydrogen peroxide, luminescent counts): 534.3
- Measured ATP level (Fatty Alcohol 5 ppm, 400 μM hydrogen peroxide): 708.0
- Measured ATP level (Fatty Alcohol 50 ppm, 400 μM hydrogen peroxide): 962.3
